Article PMC12883167 (Bioorganic & medicinal chemistry letters, 2019)
Values joined by “and” are separate entries in the source; they are usually repeats but may differ in a detail not shown here. Equal values may be shown once. Numbered stars: 1 amine (or outer) side, 2 acyl side, 3 side chain; on linkers, the order of the positions; unused ones are H or OH. Square brackets hold non-standard residues; d marks the D form. Peptide text beside a SMILES is read from it. * marks the point of attachment. cisHyp = O=C(O)[C@@H]1C[C@H](O)CN1; Hyp = O=C(O)[C@@H]1C[C@@H](O)CN1; Chg = N[C@H](C(=O)O)C1CCCCC1; Phg = N[C@H](C(=O)O)c1ccccc1; Tle = CC(C)(C)[C@H](N)C(=O)O; NMeV = CN[C@H](C(=O)O)C(C)C; αMeP = C[C@@]1(C(=O)O)CCCN1; Pip = O=C(O)[C@@H]1CCCCN1; Ac6c = NC1(C(=O)O)CCCCC1; Ac5c = NC1(C(=O)O)CCCC1; Cbz = O=C(OCc1ccccc1)*; CO = O=C([*:1])[*:2]; Bz = O=C(c1ccccc1)*; NHPh = c1ccc(N*)cc1; CH2F = FC*

Key:
MALT1 protease = target: T1, MALT1 protease (Homo sapiens, UniProt Q9UDY8); format: cell-based; conditions: Cell (Glo), GloSensor reporter, PMA/IO activated Raji cells
T1 sequence (Q9UDY8 1-824): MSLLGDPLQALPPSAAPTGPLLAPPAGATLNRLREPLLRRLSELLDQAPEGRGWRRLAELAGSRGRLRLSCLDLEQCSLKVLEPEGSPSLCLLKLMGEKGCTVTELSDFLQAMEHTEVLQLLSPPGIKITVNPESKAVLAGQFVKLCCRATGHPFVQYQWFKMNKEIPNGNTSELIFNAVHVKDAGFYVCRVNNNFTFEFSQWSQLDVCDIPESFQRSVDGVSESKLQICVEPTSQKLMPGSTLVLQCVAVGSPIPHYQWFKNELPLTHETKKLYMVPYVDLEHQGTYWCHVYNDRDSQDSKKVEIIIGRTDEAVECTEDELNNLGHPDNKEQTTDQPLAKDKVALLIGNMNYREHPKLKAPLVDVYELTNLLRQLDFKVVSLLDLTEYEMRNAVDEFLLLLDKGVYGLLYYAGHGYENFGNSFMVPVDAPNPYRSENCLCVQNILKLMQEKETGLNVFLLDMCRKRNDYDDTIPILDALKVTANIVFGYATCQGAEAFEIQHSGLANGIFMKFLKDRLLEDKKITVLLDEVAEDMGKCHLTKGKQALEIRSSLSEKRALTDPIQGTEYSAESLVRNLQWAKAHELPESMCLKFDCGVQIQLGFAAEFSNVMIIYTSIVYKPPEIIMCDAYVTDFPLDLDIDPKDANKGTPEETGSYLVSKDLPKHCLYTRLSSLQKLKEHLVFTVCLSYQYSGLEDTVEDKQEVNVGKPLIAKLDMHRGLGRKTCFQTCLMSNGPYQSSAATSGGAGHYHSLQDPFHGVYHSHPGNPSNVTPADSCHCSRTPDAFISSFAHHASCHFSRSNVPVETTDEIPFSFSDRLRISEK

cathepsin S = cathepsin S (Homo sapiens, UniProt P25774); assay: Protease selectivity profiling, cathepsin S; format: biochemical; conditions: at 100 nM
[1] = tested on: panel of 26 proteases, primarily caspases and cathepsins; assay: Selectivity panel of 26 proteases; format: biochemical; conditions: profiling at lower concentrations
[2] = tested on: RelB cleavage (MALT1 protease activity) in OCI-Ly3 cells; assay: Inhibition of RelB cleavage in OCI-Ly3 cells by Western blot; format: cell-based; conditions: at 20 μM
calpain = assay: Protease selectivity profiling, calpain; format: biochemical; conditions: at 100 nM
cathepsin B = cathepsin B (Homo sapiens, UniProt P07858); assay: Protease selectivity profiling, cathepsin B; format: biochemical; conditions: at 100 nM
OCI-Ly3 cells = assay: OCI-Ly3 cell proliferation assay
MALT1 = target: T2, MALT1 (Homo sapiens, UniProt Q9UDY8); conditions: PD studies ref 20; cited from earlier work
T2 sequence (Q9UDY8 1-824): T1 sequence (Q9UDY8 1-824)

trypsin = assay: Protease selectivity profiling, trypsin; format: biochemical; conditions: at 100 nM
[3] = Plasma levels upon IV and IP dosing in mice; format: in vivo
[4] = tested on: ABC-DLBCL xenograft models; conditions: two ABC-DLBCL xenograft models ref 20; cited from earlier work

cathepsin S, sequence (P25774 115-331, species assumed): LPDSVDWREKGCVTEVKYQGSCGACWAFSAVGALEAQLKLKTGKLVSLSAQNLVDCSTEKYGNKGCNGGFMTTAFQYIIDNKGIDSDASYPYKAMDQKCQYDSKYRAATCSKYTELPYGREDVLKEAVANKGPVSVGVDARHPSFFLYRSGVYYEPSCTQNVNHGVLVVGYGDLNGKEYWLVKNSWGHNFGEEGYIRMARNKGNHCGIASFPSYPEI

| Compound | IC50 (MALT1 protease) | other results |
| --- | --- | --- |
| N=C(N)NCCC[C@H](NC(=O)[C@@H]1CCCN1C(=O)[C@@H](NC(=O)c1ccc(Br)cc1)C1CCCCC1)C(=O)CF [Compound 51] | 43 nM | – |
| CC(C)[C@H](NC(=O)c1ccc(C(F)(F)F)cc1)C(=O)N1CCC[C@H]1C(=O)N[C@@H](CCCNC(=N)N)C(=O)CF [Compound 25] | 230 nM | – |
| N=C(N)NCCC[C@H](NC(=O)[C@@H]1CCCN1C(=O)[C@@H](NC(=O)OCc1ccccc1)c1ccccc1)C(=O)CF [Compound 36] (Cbz-[Phg]-Pro-Arg-CH2F) | 1430 nM | – |
| CC(C)[C@H](NC(=O)C1CCCCC1)C(=O)N1CCC[C@H]1C(=O)N[C@@H](CCCNC(=N)N)C(=O)CF [Compound 28] | 640 nM | – |
| CC(C)[C@H](NC(=O)c1ccc(Br)cc1)C(=O)N1CCCC[C@H]1C(=O)N[C@@H](CCCNC(=N)N)C(=O)CF [Compound 46] | 327 nM | activity against cathepsin S (cathepsin S): highest activity; selectivity in protease panel [1]: the most selective compound |
| CC(C)[C@H](NC(=O)Nc1ccc(Cl)cc1)C(=O)N1CCC[C@H]1C(=O)N[C@@H](CCCNC(=N)N)C(=O)CF [Compound 30] | 110 nM | – |
| CC(C)[C@H](NC(=O)c1ccc(Br)cc1)C(=O)N1CCC[C@@H]1C(=O)N[C@@H](CCCNC(=N)N)C(=O)CF [Compound 50] | 17500 nM | – |
| CC(C)[C@H](NC(=O)c1ccc(Br)cc1)C(=O)N1COC[C@H]1C(=O)N[C@@H](CCCNC(=N)N)C(=O)CF [Compound 48] | 77 nM | – |
| CC(C)[C@H](NC(=O)OCc1ccccc1)C(=O)N1C[C@H](O)C[C@H]1C(=O)N[C@@H](CCCNC(=N)N)C(=O)CF [Compound 41] (Cbz-Val-[Hyp]-Arg-CH2F) | 209 nM | – |
| CC(C)[C@H](NC(=O)c1ccc(C#N)cc1)C(=O)N1CCC[C@H]1C(=O)N[C@@H](CCCNC(=N)N)C(=O)CF [Compound 24] | 710 nM | – |
| CC(C)[C@H](NC(=O)OCc1ccccc1)C(=O)N1CCC[C@@]1(C)C(=O)N[C@@H](CCCNC(=N)N)C(=O)CF [Compound 43] (Cbz-Val-[αMeP]-Arg-CH2F) | 873 nM | – |
| CC(C)[C@H](NC(=O)c1ccc(Cl)cc1)C(=O)N1CCC[C@H]1C(=O)N[C@@H](CCCNC(=N)N)C(=O)CF [Compound 23] | 180 nM | – |
| CC(C)[C@H](NC(=O)c1ccc(Br)cc1)C(=O)N1CC[C@H]1C(=O)N[C@@H](CCCNC(=N)N)C(=O)CF [Compound 47] | 219 nM | – |
| CC(C)C[C@H](NC(=O)OCc1ccccc1)C(=O)N1CCC[C@H]1C(=O)N[C@@H](CCCNC(=N)N)C(=O)CF [Compound 31] (Cbz-Leu-Pro-Arg-CH2F) | 3420 nM | – |
| CC(C)[C@H](NC(=O)c1ccc(Br)cc1)C(=O)N1CCOC[C@H]1C(=O)N[C@@H](CCCNC(=N)N)C(=O)CF [Compound 49] | 174 nM | – |
| N=C(N)NCCC[C@H](NC(=O)[C@@H]1CCCN1C(=O)[C@H](Cc1ccccc1)NC(=O)OCc1ccccc1)C(=O)CF [Compound 33] | 2030 nM | – |
| CC(C)[C@H](NC(=O)OCc1ccccc1)C(=O)N1CCC[C@H]1C(=O)N[C@@H](CCCNC(=N)N)C(=O)CF [Compound 4, Z-VPR-fmk] (Cbz-Val-Pro-Arg-CH2F) | 1960 nM | – |
| CC(C)[C@H](NC(=O)OCc1ccccc1)C(=O)N1C[C@@H](O)C[C@H]1C(=O)N[C@@H](CCCNC(=N)N)C(=O)CF [Compound 42] (Cbz-Val-[cisHyp]-Arg-CH2F) | 239 nM | – |
| CC[C@H](C)[C@H](NC(=O)OCc1ccccc1)C(=O)N1CCC[C@H]1C(=O)N[C@@H](CCCNC(=N)N)C(=O)CF [Compound 32] (Cbz-Ile-Pro-Arg-CH2F) | 1860 nM | – |
| N=C(N)NCCC[C@H](NC(=O)[C@@H]1CCCN1C(=O)C1(NC(=O)OCc2ccccc2)CCCC1)C(=O)CF [Compound 38] (Cbz-[Ac5c]-Pro-Arg-CH2F) | 5380 nM | – |

| Compound | IC50 (MALT1 protease) | other results |
| --- | --- | --- |
| CC(C)[C@H](NC(=O)c1ccccc1)C(=O)N1CCC[C@H]1C(=O)N[C@@H](CCCNC(=N)N)C(=O)CF [Compound 19] (Bz-Val-Pro-Arg-CH2F) | 640 nM | – |
| CC(C)[C@H](NC(=O)c1cccc(Br)c1)C(=O)N1CCC[C@H]1C(=O)N[C@@H](CCCNC(=N)N)C(=O)CF [Compound 21] | 180 nM | – |
| CC(C)[C@@H](C(=O)N1CCC[C@H]1C(=O)N[C@@H](CCCNC(=N)N)C(=O)CF)N(C)C(=O)OCc1ccccc1 [Compound 5] (Cbz-[NMeV]-Pro-Arg-CH2F) | 3000 nM | – |
| N=C(N)NCCC[C@H](NC(=O)[C@@H]1CCCN1C(=O)C1(NC(=O)OCc2ccccc2)CCCCC1)C(=O)CF [Compound 37] (Cbz-[Ac6c]-Pro-Arg-CH2F) | 6000 nM | – |
| CC(C)[C@H](NC(=O)c1ccccc1Br)C(=O)N1CCC[C@H]1C(=O)N[C@@H](CCCNC(=N)N)C(=O)CF [Compound 20] | 1110 nM | – |
| CC(C)[C@H](NC(=O)c1ccc(Br)cc1)C(=O)N1C[C@H](O)C[C@H]1C(=O)N[C@@H](CCCNC(=N)N)C(=O)CF [Compound 45] | 85 nM | – |
| CC(C)[C@H](NC(=O)OCc1ccccc1)C(=O)N[C@@H](CCCNC(=N)N)C(=O)N1CCC[C@H]1C(=O)N[C@@H](CCCNC(=N)N)C(=O)CF [Z-VRPR-fmk, reference compound] | – | inhibition of RelB cleavage [2]: partial inhibition |
| CC(C)(C)[C@H](NC(=O)OCc1ccccc1)C(=O)N1CCC[C@H]1C(=O)N[C@@H](CCCNC(=N)N)C(=O)CF [Compound 35] (Cbz-[Tle]-Pro-Arg-CH2F) | 710 nM | – |
| N=C(N)NCCC[C@H](NC(=O)[C@@H]1CCCN1C(=O)[C@@H](NC(=O)OCc1ccccc1)C1CCCCC1)C(=O)CF [Compound 34] (Cbz-[Chg]-Pro-Arg-CH2F) | 150 nM | – |
| N=C(N)NCCC[C@H](NC(=O)[C@H](CO)NC(=O)[C@@H](NC(=O)c1ccc(Br)cc1)C1CCCCC1)C(=O)CF [Compound 52] | 87 nM | – |
| CC(C)[C@H](NC(=O)OCc1ccccc1)C(=O)N1CCCC[C@H]1C(=O)N[C@@H](CCCNC(=N)N)C(=O)CF [Compound 40] (Cbz-Val-[Pip]-Arg-CH2F) | 144 nM | – |
| CC(C)[C@H](NC(=O)c1ccc(Br)cc1)C(=O)N[C@@H](CO)C(=O)N[C@@H](CCCNC(=N)N)C(=O)CF [Compound 44] | – | activity against calpain (calpain): active; activity against cathepsin S (cathepsin S): active; activity against cathepsin B (cathepsin B): active |
| N=C(N)NCCC[C@H](NC(=O)[C@@H]1C[C@@H](O)CN1C(=O)[C@@H](NC(=O)c1ccc(Br)cc1)C1CCCCC1)C(=O)CF [Compound 53] | 65 nM | – |
| CN[C@H](C(=O)N1CCC[C@H]1C(=O)N[C@@H](CCCNC(=N)N)C(=O)CF)C(C)C [Compound 3] (H-[NMeV]-Pro-Arg-CH2F) | > 20000 nM | activity in the cell (proliferation) assay, in words (OCI-Ly3 cells): inactive |
| CC(C)[C@H](NC(=O)c1ccc(Br)cc1)C(=O)N1CCC[C@H]1C(=O)N[C@@H](CCCNC(=N)N)C(=O)CF [Compound 22] | 71 nM and 70 nM | in vivo inhibition of MALT1 activity (MALT1): in vivo inhibition of MALT1 activity; potency against trypsin (trypsin): > 80%; plasma levels [3]: moderate plasma levels for several hours; effects on tumor growth [4]: moderate effects on tumor growth |
| COc1ccc(C(=O)N[C@H](C(=O)N2CCC[C@H]2C(=O)N[C@@H](CCCNC(=N)N)C(=O)CF)C(C)C)cc1 [Compound 26] | 800 nM | – |
| CC(C)c1ccc(C(=O)N[C@H](C(=O)N2CCC[C@H]2C(=O)N[C@@H](CCCNC(=N)N)C(=O)CF)C(C)C)cc1 [Compound 27] | 70 nM | – |
| CC(C)[C@H](NC(=O)OCc1ccccc1)C(=O)N[C@@H](CO)C(=O)N[C@@H](CCCNC(=N)N)C(=O)CF [Compound 39] | 149 nM | – |
| CC(C)[C@H](NC(=O)Nc1ccccc1)C(=O)N1CCC[C@H]1C(=O)N[C@@H](CCCNC(=N)N)C(=O)CF [Compound 29] ({NHPh-CO}-Val-Pro-Arg-CH2F) | 170 nM | – |
